Laboratory results published in PubChem BioAssay AID256 (DTP/NCI, 2004).
“And” between values parts separate entries of the source, which are not always exact repeats. Identical values can stand only once. Toxic doses and inconclusive results are not listed.

Tested on: CD2F1 mice, L1210 leukemia ip, survival T/C
Experiment: NCI In Vivo Anticancer Drug Screen. Data for tumor model L1210 Leukemia (intraperitoneal) in CD2F1 (CDF1) mice
Details: endpoint: mean survival time, higher = longer survival
Procedure, shortened: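 Compound-dosed mice with transplantable tumor versus matched vehicle controls; endpoint ratio T/C reported.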

[1] = dose: 100.0 mg/kg/injection, schedule: Q01DX009 (ip), vehicle: saline
[2] = dose: 200.0 mg/kg/injection, schedule: Q01DX009 (ip), vehicle: saline

For `N=C(N)SCc1c2ccccc2c(CSC(=N)N)c2ccccc12`, the T/C (dose: 0.06 mg/kg/injection, schedule: Q#B X Z (ip), vehicle: saline) was 109 % of control, the T/C (dose: 0.13 mg/kg/injection, schedule: Q#B X Z (ip), vehicle: saline) was 121 % of control and the T/C (dose: 0.39 mg/kg/injection, schedule: Q01DX Z (ip), vehicle: saline) was 115 % of control. For the same compound, the T/C (dose: 0.78 mg/kg/injection, schedule: Q01DX Z (ip), vehicle: saline) was 121 % of control, the T/C (dose: 1.04 mg/kg/injection, schedule: Q#B X Z (ip), vehicle: saline) was 155 % of control and the T/C (dose: 2.08 mg/kg/injection, schedule: Q#B X Z (ip), vehicle: saline) was 160 % of control. For the same compound, the T/C (dose: 3.13 mg/kg/injection, schedule: Q01DX Z (ip), vehicle: saline) was 151 % of control, the T/C (dose: 6.25 mg/kg/injection, schedule: Q01DX Z (ip), vehicle: saline) was 162 % of control and the T/C (dose: 8.33 mg/kg/injection, schedule: Q#B X Z (ip), vehicle: saline) was 119 % of control. The T/C (dose: 12.5 mg/kg/injection, schedule: Q01DX Z (ip), vehicle: saline) was 156 % of control, the T/C (dose: 16.66 mg/kg/injection, schedule: Q#B X Z (ip), vehicle: saline) was 98 % of control and the T/C (dose: 25.0 mg/kg/injection, schedule: Q01DX Z (ip), vehicle: saline) was 155 % of control. For the same compound, the T/C (dose: 50.0 mg/kg/injection, schedule: Q01DX001 (ip), vehicle: saline) was 158 % of control, the T/C (dose: 50.0 mg/kg/injection, schedule: Q03HX008 (ip), vehicle: saline) was 178 % of control and the T/C (dose: 50.0 mg/kg/injection, schedule: Q03HX016 (ip), vehicle: saline) was 175 % of control. For the same compound, the T/C (dose: 50.0 mg/kg/injection, schedule: Q06HX004 (ip), vehicle: saline) was 151 % of control, the T/C (dose: 50.0 mg/kg/injection, schedule: Q08DX002 (ip), vehicle: saline) was 174 % of control and the T/C (dose: 50.0 mg/kg/injection, schedule: Q12HX002 (ip), vehicle: saline) was 173 % of control. The T/C (dose: 50.0 mg/kg/injection, schedule: Q12HX004 (ip), vehicle: saline) was 189 % of control, the T/C (dose: 80.0 mg/kg/injection, schedule: Q01DX001 (ip), vehicle: saline) was 168 % of control and the T/C (dose: 100.0 mg/kg/injection, schedule: Q01DX001 (ip), vehicle: saline) was 193 % of control. The T/C [1] was 154 % of control, the T/C (dose: 100.0 mg/kg/injection, schedule: Q01DX Z (ip), vehicle: saline) was 124 % of control and the T/C (dose: 100.0 mg/kg/injection, schedule: Q03HX008 (ip), vehicle: saline) was 196 % of control. The T/C (dose: 100.0 mg/kg/injection, schedule: Q03HX016 (ip), vehicle: saline) was 194 % of control, the T/C (dose: 100.0 mg/kg/injection, schedule: Q08DX002 (ip), vehicle: saline) was 220 % of control and the T/C (dose: 100.0 mg/kg/injection, schedule: Q12HX002 (ip), vehicle: saline) was 239 % of control. The T/C (dose: 100.0 mg/kg/injection, schedule: Q12HX004 (ip), vehicle: saline) was 224 % of control, the T/C (dose: 125.0 mg/kg/injection, schedule: Q01DX001 (ip), vehicle: saline) was 113 % of control and the T/C (dose: 200.0 mg/kg/injection, schedule: Q01DX001 (ip), vehicle: saline) was 227 % of control. The T/C [2] was 106 % of control, the T/C (dose: 200.0 mg/kg/injection, schedule: Q01DX010 (oral), vehicle: saline) was 94 % of control and the T/C (dose: 200.0 mg/kg/injection, schedule: Q01DX Z (ip), vehicle: saline) was 88 % of control. For the same compound, the T/C (dose: 200.0 mg/kg/injection, schedule: Q03HX008 (ip), vehicle: saline) was 207 % of control, the T/C (dose: 200.0 mg/kg/injection, schedule: Q03HX016 (ip), vehicle: saline) was 204 % of control and the T/C (dose: 200.0 mg/kg/injection, schedule: Q06HX008 (ip), vehicle: saline) was 179 % of control. The T/C (dose: 200.0 mg/kg/injection, schedule: Q08DX002 (ip), vehicle: saline) was 197 % of control, the T/C (dose: 200.0 mg/kg/injection, schedule: Q12HX002 (ip), vehicle: saline) was 254 % of control and the T/C (dose: 200.0 mg/kg/injection, schedule: Q12HX004 (ip), vehicle: saline) was 158 % of control. The T/C (dose: 320.0 mg/kg/injection, schedule: Q01DX001 (ip), vehicle: saline) was 100 % of control, the T/C (dose: 400.0 mg/kg/injection, schedule: Q01DX010 (oral), vehicle: saline) was 90 % of control and the T/C (dose: 400.0 mg/kg/injection, schedule: Q03HX016 (ip), vehicle: saline) was 111 % of control. The T/C (dose: 400.0 mg/kg/injection, schedule: Q06HX004 (ip), vehicle: saline) was 183 % of control, the T/C (dose: 400.0 mg/kg/injection, schedule: Q06HX008 (ip), vehicle: saline) was 152 % of control and the T/C (dose: 400.0 mg/kg/injection, schedule: Q08DX002 (ip), vehicle: saline) was 152 % of control. For the same compound, the T/C (dose: 400.0 mg/kg/injection, schedule: Q12HX004 (ip), vehicle: saline) was 118 % of control, the T/C (dose: 800.0 mg/kg/injection, schedule: Q01DX010 (oral), vehicle: saline) was 88 % of control and the T/C (dose: 1000.0 mg/kg/injection, schedule: Q01DX001 (ip), vehicle: saline) was 162 % of control.

With `COc1ccc(NC(=O)Oc2ccc(Cl)cc2Cl)c(Cl)c1` the T/C (dose: 25.0 mg/kg/injection, schedule: Q01DX009 (ip), vehicle: Klucel (hydroxypropylcellulose) (HPC)) was 95 % of control, the T/C (dose: 50.0 mg/kg/injection, schedule: Q01DX009 (ip), vehicle: Klucel (hydroxypropylcellulose) (HPC)) was 95 % of control and 107 % of control and the T/C (dose: 100.0 mg/kg/injection, schedule: Q01DX009 (ip), vehicle: Klucel (hydroxypropylcellulose) (HPC)) was 98 % of control and 104 % of control. For the same compound, the T/C (dose: 100.0 mg/kg/injection, schedule: Q04DX003 (ip), vehicle: Klucel (hydroxypropylcellulose) (HPC)) was 98 % of control, the T/C (dose: 200.0 mg/kg/injection, schedule: Q01DX009 (ip), vehicle: Klucel (hydroxypropylcellulose) (HPC)) was 120 % of control and 102 % of control and the T/C (dose: 200.0 mg/kg/injection, schedule: Q04DX003 (ip), vehicle: Klucel (hydroxypropylcellulose) (HPC)) was 104 % of control. For the same compound, the T/C (dose: 400.0 mg/kg/injection, schedule: Q04DX003 (ip), vehicle: Klucel (hydroxypropylcellulose) (HPC)) was 112 % of control.

`N#CC1C=Cc2ccccc2N1C(=O)Oc1ccccc1` (centres undefined) was tested, and the T/C [1] was 95 % of control, the T/C [2] was 93 % of control and the T/C (dose: 400.0 mg/kg/injection, schedule: Q01DX009 (ip), vehicle: saline) was 89 % of control.

With `O=C1C=CC(=Nc2ccccc2)O1` the T/C (dose: 2.5 mg/kg/injection, schedule: Q01DX009 (ip), vehicle: saline with Tween-80) was 96 % of control, the T/C (dose: 2.5 mg/kg/injection, schedule: Q04DX003 (ip), vehicle: saline with Tween-80) was 101 % of control and the T/C (dose: 5.0 mg/kg/injection, schedule: Q01DX009 (ip), vehicle: saline with Tween-80) was 102 % of control. For the same compound, the T/C (dose: 5.0 mg/kg/injection, schedule: Q04DX003 (ip), vehicle: saline with Tween-80) was 101 % of control, the T/C (dose: 10.0 mg/kg/injection, schedule: Q01DX009 (ip), vehicle: saline with Tween-80) was 93 % of control and the T/C (dose: 10.0 mg/kg/injection, schedule: Q04DX003 (ip), vehicle: saline with Tween-80) was 98 % of control.
